In one assay the target is T1, Mig (Homo sapiens, UniProt Q07325).
T1 construct: purchased 300-26
T1 sequence (Q07325 23-125): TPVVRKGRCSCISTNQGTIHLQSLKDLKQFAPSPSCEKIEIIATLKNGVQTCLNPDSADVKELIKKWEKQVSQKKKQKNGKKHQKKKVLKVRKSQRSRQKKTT
Put plainly: Micro-array analysis of chemokine binding peptides: Mig. In a few lines:
(§1)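 Relative Cy3 fluorescence reflects how much recombinant phage (10^7 pfu/μl, 1 h, RT) bound chemokine printed at 25 or 50 μg/ml. Detection used anti-M13 monoclonal followed by Cy3 anti-mouse IgG.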

In the next assay the target is T2, Exodus-2 (Homo sapiens, UniProt O00585).
T2 construct: purchased 300-35
T2 sequence (O00585 24-134): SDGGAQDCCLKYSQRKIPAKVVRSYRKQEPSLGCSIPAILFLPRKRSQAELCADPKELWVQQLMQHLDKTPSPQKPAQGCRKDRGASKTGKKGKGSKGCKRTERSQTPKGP
Put plainly: Micro-array analysis of chemokine binding peptides: Exodus-2. In a few lines:
as §1

A further assay has as its target T3, Eotaxin 2 (Homo sapiens, UniProt O00175).
T3 construct: purchased 300-33
T3 sequence (O00175 27-119): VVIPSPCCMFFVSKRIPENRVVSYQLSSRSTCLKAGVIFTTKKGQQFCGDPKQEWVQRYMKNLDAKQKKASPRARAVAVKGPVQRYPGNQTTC
Put plainly: Micro-array analysis of chemokine binding peptides: Eotaxin 2. A digest of the protocol:
as §1

The subject of assay [1] is Adjuvant-Induced Arthritis (AIA) rats. Put plainly: Adjuvant Induced Arthritis (AIA) rat model, Clinical Score. The class given is in vivo. The conditions noted are these: for most efficacious of the three doses: 2.5 μg, 25 μg and 250 μg IP on days 7-18; for day of maximal anti-inflammatory effect / maximal anti-inflammatory effect: 25 μg IP on days 7-18. As for the experimental part: Peptides were tested in a rat model of AIA for their anti-inflammatory effects.
Disease Induction: AIA was induced in female Lewis rats aged 7-8 weeks by injection of heat-killed Mycobacerioum tuberculosis (Mt strain H37Ra, Difco Laboratories, USA) dispersed in incomplete Freund's adjuvant to a final concentration of 10 mg/ml (100 μl) at the base of the tail on day 0.
Measurement: Clinical Score (CS, 0-4) for each limb based on (a) joint inflammation, (b) redness, (c) deformity.
Efficacy Protocol 1 (5 rats per group). Peptide/control compound was injected intra-peritoneally (IP, 200 μl) on days 7-11 and 14-18.
Rats were sacrificed (CO2 inhalation) on day 43.
Efficacy Protocol 2 (8 rats per group). Group 1: peptide/PBS was injected intra-peritoneally (IP, 200 μl) on days 7-18; Group 2: PBS was injected IP on days 7-18; Group 3: Dexamethasone (Dexa) was injected IP on days 11 (Clinical Score (CS)1) and 13. Rats were sacrificed on day 43.
Combination Efficacy Protocol 1 (8 rats per group). Group 1: peptide injected IP on days 7-18; Group 2: PBS injected IP on days 7-18; Group 3: Dexa injected IP on day 11 (CS 1) and day 13; Group 4: Dexa injected IP on days 11 and 13 then peptide injected on days 14-22; Group 5: Dexa injected IP on days 11 and 13 then PBS injected on days 14-22.
Combination Efficacy Protocol 2 (8 rats per group). Group 1: peptide injected IP on days 7-18; Group 2: PBS injected IP on days 7-18; Group 3: Dexa injected IP on day 11 (CS 1) and day 13 then PBS on days 14-22; Group 4: PBS injected IP on days 7-10,12,14; Dexa injected on days 11, 13. Peptide injected on days 15-19.
Combination Efficacy Protocol 3 (8 rats per group). Group 1: peptide injected IP on days 7-18; Group 2: PBS injected IP on days 7-18; Group 3: Dexa injected IP on day 11 (CS 1) and day 13 then PBS on days 14-22; Group 4: peptide injected IP on days 7-10,12,14; Dexa injected on days 11, 13. Peptide injected on days 15-19.
Control Reagents for Adjuvant Induced Arthritis: Anti-Inflammatory Control: Dexamethasone Sodium Phosphate (Dexacort Forte, Teva) was dissolved in Phosphate Buffer Saline (PBS, GIBCO) to a final concentration of 1 mg/ml and injected in 200 μl (200 μg).
Negative Control: Phosphate Buffer Saline (PBS).

The subject of a further assay is SDF1. Put plainly: Micro-array analysis of chemokine binding peptides: SDF1 (isoform not given). Here is the method:
(1) Printing: Chemokine (CK) solution (in water) was serially diluted with Print Reagent (GenTel BioSurfaces USA) to final concentrations of 50 μg and 25 μg/ml. BSA/BSA-Biotin control solutions (in water) were diluted with Print Reagent to 100 μg/ml. Amplified stock of M13 phage control (M13KEgIII Cloning Vector, New England Biolabs, Cat.No.E8101S) was stored in Tris Buffered Saline (TBS; pH7.5, 4° C.) and diluted with Print Reagent to the working titre (10^8 pfu/μl). An automated spotting robot (16 pin print tool, 0.4 mm head; BioRobotics, UK) was used to print the CK/BSA control/M13 control, 5 repeats per sample (CK 25 μg/ml and 50 μg/ml; BSA 100 μg/ml; M13 20 μl), on PATH Protein Microarray Slides (GenTel, Prod.No. 2-1005/-1025) at […], and 50-70% relative humidity. Printed micro-array slides were stored at Room Temperature (RT) or 4° C. for at least 24 h before use.
(2) Blocking: Block Buffer (500 μl/partition; PATHblock, GenTel, Prod.No. 2-1014) was applied to the slide for 1 hour at room temp (RT). After removal of Block Buffer, the slide was air dried for 25 minutes;
(3) Phage Presented Peptide Binding: Amplified recombinant phage stock was stored in TBS and diluted with Wash Buffer to working titer (10^7 pfu/μl). Recombinant phage suspension (300 μl) was applied per partition and incubated at RT for 1 hour with gentle agitation.
(4) First Washing: The slides were washed twice with Wash Buffer 300 μl/partition).
(5) Primary Antibody (Ab) Labeling: The slides were incubated with the Primary Ab (1 mg/ml diluted ×2500 (Wash Reagent), 300 μl; Mouse Anti-M13 monoclonal Ab; Amersham Biosciences, UK; Product Code 27-9420-01) for 45 minutes at RT.
(6) Second Washing: The slides were washed twice with Wash Buffer (300 μl/partition).
(7) Secondary Ab Labeling: The slides were incubated with Secondary Ab (1.5 mg/ml diluted ×5000 (Wash Reagent), 300 μl; Cy3-conjugated AffiniPure Goat Anti-Mouse IgG; Jackson ImmunoReserch Labs, USA; Product Code 115-165-062).
(8) Third Washing: The slides were washed twice with Wash Buffer (300 μl/partition).
(9) Rinse: the slides were rinsed twice with Rinse Buffer (PATHrinse, GenTel, Prod.No. 2-1018) then dried well.
(10) Scanning: The peptide-bound, labeled slide was scanned (Laser Intensity 80%, Gain 80%, Resolution 10 μm) with a ScanArray Life Scanner (Packard BioChip Technologies, USA).
(11) Analysis: Quantitative analysis of micro-array was performed by the SpotReader program of Niles Scientific (USA) and presented as Relative Fluorescence (RF) as a function of CK concentration. Micro-array readout (Cy3 fluorescence) was quantified to determine the relative binding affinities of a CBP for the CKs and by inference, the specificity of the CBP for binding to a CK.

Setting [2] is: limit = start of the upper 75% of that peptide's response range.

A value given as a limit tells only on which side of the number the result lay.

Consider three sequences from patent US12072338B2, “Pharmaceutical peptides for the treatment of inflammatory diseases” (PROTAGONISTS LTD., priority 2007, dated 2024).

Chain of SDF1 (P48061 22-89 limits assumed): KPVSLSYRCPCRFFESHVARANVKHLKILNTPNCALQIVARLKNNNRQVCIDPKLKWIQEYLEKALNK

Take DYDYGAPC [Ph-p30]: in the assay with Mig (setting [2]), the “binding to Mig with relatively high affinity (Relative Fluorescence Units)” value is > 15,000 RFU. Moreover, the “binding to Exodus-2, stated in words” value with Exodus-2 is listed as “bound”. The “binding to Eotaxin 2 with relatively high affinity (Relative Fluorescence Units)” value with Eotaxin 2 (setting [2]) is given as > 15,000 RFU.

Turning to WVFGAAMCK [Ph-p8.8], the “binding to Mig, stated in words” value in the assay with Mig was “bound”. Also, the “binding to Exodus-2, stated in words” value with Exodus-2 was “bound”. Also, in the assay with Eotaxin 2, the “binding to Eotaxin 2, stated in words” value is “bound”. For the same sequence, in assay [1], the “most efficacious of the three doses” value is 25 µg, the “day of maximal anti-inflammatory effect” value was 18 days and the maximal anti-inflammatory effect turned out to be 20%. Also, the “binding to SDF1 (isoform not given), stated in words” value in the assay with SDF1 was “bound specifically and differentially”.

For the sequence WVFGNAMCK [P8], in assay [1], the “most efficacious of the three doses” value came out at 25 µg, the “day of maximal anti-inflammatory effect” value was approximately 17 days and the maximal anti-inflammatory effect is 17%. The “binding to SDF1 (isoform not given), stated in words” value in the assay on SDF1 is “bound specifically and differentially”.
